In BindingDB's records for patent US12115157 (Boehringer Ingelheim International, 2024):

Target: G-protein coupled receptor 52 (Homo sapiens, UniProt Q9Y2T5)
Test: Homogeneous Time-Resolved Fluorescence (HTRF) Assay
Description: HTRF cAMP assays were performed using commercially available assay kits according to the manufacturer's instructions (cAMP Dynamic 2 Assay Kit; #62AM4PEJ, Cisbio Bioassays, Bedford, MA). An aliquot of CHO-K1 cells stably expressing recombinant human GPR52 was thawed and resuspended in cell buffer (1×PBS (w/o Ca2+/Mg2+)) at a density of 4×10^5 cells per mL. Test compounds were solubilized in DMSO to 10 mM stock solutions and serially diluted in DMSO using 6-fold dilutions to generate 8-point dose response curves. These serially diluted samples were then diluted 1:50 in compound dilution buffer (1×PBS (w/o Ca2+/Mg2+) containing 0.5 mM IBMX, 0.1% BSA) to achieve a 4× stock. The diluted compounds were transferred (5 μL per well) in duplicate to the 384-well assay plate (Optiplate #6007290, PerkinElmer, Waltham, MA). Both a positive (reference compound) and negative (non-stimulated vehicle) control was included in each assay run in column 23. The cell suspension was subsequently dispensed into the 384-well assay plates at 15 μL per well (6000 cells) such that the compound was diluted to 1×. […] After a one-hour incubation at room temperature, 10 μL of cAMP D2 reagent followed by 10 μL of cryptate reagent (provided in the Cisbio kit) was added to each well. Plates were then incubated at room temperature for one hour prior to reading. Time-resolved fluorescence measurements were collected on an EnVision HTRF plate reader (PerkinElmer, Waltham, MA).

Chain of G-protein coupled receptor 52 (Q9Y2T5 whole entry): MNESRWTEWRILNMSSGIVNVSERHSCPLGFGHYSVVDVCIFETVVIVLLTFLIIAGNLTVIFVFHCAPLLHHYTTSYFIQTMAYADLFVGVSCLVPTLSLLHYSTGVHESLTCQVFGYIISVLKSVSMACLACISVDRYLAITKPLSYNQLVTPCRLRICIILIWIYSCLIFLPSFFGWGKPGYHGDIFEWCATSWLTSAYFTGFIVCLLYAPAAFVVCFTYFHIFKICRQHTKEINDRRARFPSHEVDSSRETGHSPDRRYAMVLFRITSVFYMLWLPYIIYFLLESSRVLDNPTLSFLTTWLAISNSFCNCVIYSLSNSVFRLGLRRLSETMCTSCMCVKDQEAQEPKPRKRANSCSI

Structure (SMILES) | EC50
CC(=O)N1C[C@@H](NC(=O)c2nccnc2N2CC(Oc3ccc(F)c(F)c3)C2)C(F)(F)C1 [US12115157, Ex. 8a] | 1090 nM
CC(=O)N1C[C@H](NC(=O)c2nccnc2N2CC(Oc3ccc(F)c(F)c3)C2)C(F)(F)C1 [US12115157, Ex. 8b] | 7 nM
CC(=O)N1C[C@@H](NC(=O)c2nccnc2N2CC(Oc3cc(F)c(F)c(F)c3)C2)C(F)(F)C1 [US12115157, Ex. 11a] | 1280 nM
CC(=O)N1C[C@H](NC(=O)c2nccnc2N2CC(Oc3cc(F)c(F)c(F)c3)C2)C(F)(F)C1 [US12115157, Ex. 11b] | 10 nM
CC(=O)N1C[C@@H](NC(=O)c2nsnc2N2CC(Oc3ccc(F)c(F)c3)C2)C(F)(F)C1 [US12115157, Ex. 13a] | 595 nM
CC(=O)N1C[C@H](NC(=O)c2nsnc2N2CC(Oc3ccc(F)c(F)c3)C2)C(F)(F)C1 [US12115157, Ex. 13b] | 3 nM
